# Measured values from patent US9422396B2, “Biodegradable elastomers prepared by the condensation of an organic di-, tri- or tetra-carboxylic acid and an organic diol” (QATAR UNIVERSITY, priority 2007, dated 2016).
# Columns and labels:
# [1] = In vitro hydrolytic degradation of poly(diol-tricarballylate) elastomers in PBS (pH 7.4); assay type: physicochemical
# Experimental: In order to examine the influence of chain length on the degradation rate and the changes in the mechanical properties of the elastomer during the in vitro degradation, four different elastomers, based on varying chain lengths of alkylene diol (C6-C12), were prepared and tested. FIGS. 21a and 21b show the weight loss and water absorption data for the four prepared elastomers.
# Young's modulus (E) and the ultimate tensile stress (σ) decreased in a nearly linear fashion with time as indicative of zero-order degradation mechanism. This linear decrease was observed regardless of the network compositions, the crosslinking density and the initial E and σ of the elastomers. […] No significant change in the ultimate elongation was found up to 12 weeks of the in vitro degradation time. […] It is only with surface erosion degradation pattern that the elastomers can maintain their mechanical properties unchanged^41. […] The above observations illustrates that the changes in the mechanical properties of these networks took place in two stages. The first stage was characterized by a rapid mechanical weakening (rapid decrease in E and a) which lasted for up to 4 weeks. […] This is in correlation with the trend noted for the weight loss and water absorption reported above (FIG. 21).
# Through a linear regression of the zero-order degradation kinetics of the data in FIGS. 23a and 23b using equations (1) & (2), the rate constants were calculated and are listed in Table 1. Et=E0−KEt. (1) σt=σ0−Kσt. (2) In equations 1 & 2, t denoted the immersion time (in weeks) in PBS. The values of E0 and σ0 corresponded to the intercepts obtained from extrapolating the zero-order fitted line. Kσ and KE represented the zero-order degradation constants for […].
# [2] = Stability of pilocarpine nitrate in the release medium; assay type: physicochemical; conditions: over a period of one week
# Experimental: Before running the release studies, the stability of PCN in the release medium was tested by monitoring the changes in the concentration of a prepared stock solution of PCN in each of them over a period of one week.
molecule,measurement,setting,value
"poly(1,12 dodecane diol-co-tricarballylate) [PDDTC]","KE (zero-order degradation constant, Young's modulus)",[1],0.0080 MPa/week
same,"Kσ (zero-order degradation constant, ultimate tensile stress)",[1],0.0018 MPa/week
"CC[C@@H]1C(=O)OC[C@@H]1Cc1cncn1C [PN, Pilocarpine Nitrate]",Change in concentration of stock solution in the release medium,[2],no significant changes from its initial concentration
"poly(1,10 decane diol-co-tricarballylate) [PDTC]","KE (zero-order degradation constant, Young's modulus)",[1],0.0237 MPa/week
same,"Kσ (zero-order degradation constant, ultimate tensile stress)",[1],0.0114 MPa/week
"poly(1,8 octane diol-co-tricarballylate) [POTC]","KE (zero-order degradation constant, Young's modulus)",[1],0.0301 MPa/week
same,"Kσ (zero-order degradation constant, ultimate tensile stress)",[1],0.0124 MPa/week
